Assay results from patent publication US20040266885A1, “Wood preservative compositions” (priority 2001, published 2004).
“And” between values parts separate entries of the source, which are not always exact repeats. Equal entries are not always repeated. Where two headings read alike, the source gives them in different places.

Tests used:
Coptotermes formosanus = details: for Mean Rating (termite attack): mean of 4 specimens; for Mean Rating (termite attack) / Termite Attack Rating: 4 weeks sand culture; for Termite Attack Rating: single specimen
Excerpt: A laboratory test was undertaken to determine the toxic values of novel actives against termites. The active materials used were TBBA, TBBE [4,4′-ethylidenebis(2,6-dibromophenol)] [CAS RN=12639-25-3] (Sample Number 1392-82-03); TBBZ [4,4′-cyclohexylidene(2,6-dibromophenol)] [CAS RN=53350-96-2] (Sample Number 1392-72-03) and TBA, 2,2′,6-tribromo-4,4′-isopropylidenediphenol, CAS 6386-73-8 (Sample Number 1392-75-03).
The test was undertaken largely according to the strictures laid down in ASTM 3345-74 (the American standard laboratory test to assess the termite resistant properties of wood to wood destroying termites). The test method allows for the exposure of treated buried wood blocks to termites (Reticulitermes or Coptotermes spp.) over a period of 4 weeks. Efficacy of the product is determined by the extent of termite damage to the treated timber specimens through a scoring system. The test was slightly modified from the standard ASTM test by reducing the number of replicate wood specimens from 5 to 4.
(§1) Score 1: Attempted attack
The toxic values of the preservative product (in kg/m^3 of wood) fall between two values as follows:
1) The lowest concentration which protects the wood (i.e. the concentration at which none of the test specimens show a degree of attack greater than 1).
The termites employed were Coptotermes formosanus.
All wood bock specimens were of Southern Yellow Pine sapwood (Pinus spp.) with dimensions of 25.4×25.4×6.4 mm in accordance with ASTM D3345-74. All blocks were vacuum impregnated with the relevant solutions in accordance with ASTM D3345-74. Distribution of blocks in the test was as follows:
The test specimens were conditioned and subjected to a leaching schedule (after vacuum impregnation) as stipulated in ASTM D1413-76 (as recommended in ASTM D3345-74). All test specimens were then air dried for two weeks to constant weight.
The specimens were each positioned at the base of a 500 ml polyethylene culture jar (numbered according to each test specimen) and covered with 200 g of sand (pre-washed, sterilised and air conditioned in the laboratory) to which was added 25 g of de-ionised water. A further two containers containing watered sand but no timber were also prepared. All the jars were sealed (lids pre-pierced and covered with stainless steel mesh for aeration).
Two days after specimen placement, 200 termites were added to each culture jar (90% workers and 10% soldiers) and the jars re-sealed. The jars were incubated at a mean temperature and relative humidity of 27.5° C. and 75-90% for 4 weeks. The containers were provided with an artificial lighting regime of 10 hours light and 14 hours darkness.
After 1 week and 4 weeks each container was examined to determine termite mortality and normal tunneling behaviour patterns as follows:
Is there tunneling present: YES/NO
Are there any termites on the surface of the soil: YES/NO (if yes how many, i.e. 1-25% of pop, 26-50% of pop, 51-100% of pop.)
Are any dead termites visible: YES/NO (if yes how many, 1-33%, 34-66%, 67-100%)
After 4 weeks the test specimens were removed and cleaned of debris. Each block was examined and visually rated for termite damage using the scoring system detailed above.

Macrotermes natalensis = test: Field exposure of TBBA treated timber samples to an active termite population (based on EN 117); assay type: in vivo; details: ethanol carrier, 54 days field exposure; for Mean Termite Attack Score (0-4): SD in parenthesis, 3 replicates; for highest termite attack score out of 3 replicates: key: Score 0: No attack; Score 1: Attempted attack; Score 2: Slight attack; Score 3: Average attack; Score 4: Strong attack
Excerpt: The termiticidal and/or termite repellency effect of TBBA was examined by field exposure of TBBA treated timber samples to an active population of termites (Macrotermes natalensis). Much of the test detail (timber specimen species, dimensions, preservative impregnation method, scoring system etc.) was based on the European laboratory standard EN 117. This standard is used to define the toxic values of wood preservative formulations against wood destroying termites of the species Reticulitermes santonensis.
The TBBA active was formulated as a solvent-borne product for the test. (ethanol carrier). The precise preservative solutions used were 0% (ethanol only), 1% TBBA, 3% TBBA, 5% TBBA, 7% TBBA and 10% TBBA (all w/w).
AU wood block specimens were of Scots pine sapwood (Pinus sylvestris) with dimensions of 50×25×15 mm. All the test blocks were vacuum impregnated with TBBA according to the method of EN 117. Distribution of the treated blocks in the test was as follows:
TS Specimens: to determine the efficacy of the TBBA active (at different concentrations) against termite attack. SCS Specimens: to confirm absence of a termiticidal effect by the TBBA carrier (ethanol). UCS Specimens: to establish the virulence of the field population of termites.
The termite field site was established in Ginginglovu (Zululand, South Africa). The soil type of the area was a Hutton Bush Veldt soil (sandy loam soil). The site was situated within 10 m of an active termite mound on a raised flat platform of soil established some 5 cm above ground level. The test specimens were randomly positioned on this platform and carefully covered with a waterproof flat plastic roof. This plastic roof was covered with soil to allow temperature and humidity conditions within the test zone to remain representative of the locale. The test specimens were left in-situ for a period of 54 days then scored for termite attack according the system defined in European standard EN 117 as follows:
as §1

[1] = 1 week, solution conc. 1%, ethanol carrier
[2] = 1 week, solution conc. 3%, ethanol carrier
[3] = 1 week, solution conc. 5%, ethanol carrier
[4] = 1 week, solution conc. 7%, ethanol carrier
[5] = 1 week, solution conc. 10%, ethanol carrier
[6] = 4 weeks, solution conc. 1%, ethanol carrier
[7] = 4 weeks, solution conc. 3%, ethanol carrier
[8] = 4 weeks, solution conc. 5%, ethanol carrier
[9] = 4 weeks, solution conc. 7%, ethanol carrier
[10] = 4 weeks, solution conc. 10%, ethanol carrier
[11] = solution conc. 1%, ethanol carrier
[12] = solution conc. 3%, ethanol carrier
[13] = solution conc. 5%, ethanol carrier
[14] = solution conc. 7%, ethanol carrier
[15] = solution conc. 10%, ethanol carrier

Which “Surface Activity (termites on the surface of the soil)” value (Coptotermes formosanus; [1]) does the source give for `CC(C)(c1cc(Br)c(O)c(Br)c1)c1cc(Br)c(O)c(Br)c1` [TBBA, Tetrabromobisphenol A] here?
The value was “No/No”.

What about the “Tunneling Activity” value (Coptotermes formosanus; [1]) of the same compound?
Its value is “Yes/Yes”.

And the “Visible Mortality” value (Coptotermes formosanus; [1])?
The value was “No/No”.

What about the “Surface Activity (termites on the surface of the soil)” value (Coptotermes formosanus; [2]) of the same compound?
Its value is “No/No”.

And the “Tunneling Activity” value (Coptotermes formosanus; [2])?
Its value is “Yes/Yes”.

What about the “Visible Mortality” value (Coptotermes formosanus; [2]) of the same compound?
The value was “No and No/No”.

What about the “Surface Activity (termites on the surface of the soil)” value (Coptotermes formosanus; [3]) of the same compound?
The value was 1-25 % (of pop.).

And the “Tunneling Activity” value (Coptotermes formosanus; [3])?
The value was “Yes/Yes”.

What about the “Surface Activity (termites on the surface of the soil)” value (Coptotermes formosanus; [4]) of the same compound?
The value was “No/No”.

What about the “Tunneling Activity” value (Coptotermes formosanus; [4]) of the same compound?
Its value is “Yes/Yes”.

And the “Visible Mortality” value (Coptotermes formosanus; [4])?
The value was “No”.

And the “Surface Activity (termites on the surface of the soil)” value (Coptotermes formosanus; [5])?
Its value is “No”.

And the “Tunneling Activity” value (Coptotermes formosanus; [5])?
The value was “Yes/Yes”.

And the “Visible Mortality” value (Coptotermes formosanus; [5])?
Its value is “No”.

And the “Surface Activity (termites on the surface of the soil)” value (Coptotermes formosanus; [6])?
Its value is “No/No”.

And the “Tunneling Activity” value (Coptotermes formosanus; [6])?
Its value is “Yes/Yes”.

And the “Visible Mortality” value (Coptotermes formosanus; [6])?
The value was “No/No”.

And the “Surface Activity (termites on the surface of the soil)” value (Coptotermes formosanus; [7])?
The value was “No/No”.

What about the “Tunneling Activity” value (Coptotermes formosanus; [7]) of the same compound?
The value was “Yes/Yes”.

And the “Surface Activity (termites on the surface of the soil)” value (Coptotermes formosanus; [8])?
Its value is “No”.

And the “Tunneling Activity” value (Coptotermes formosanus; [8])?
The value was “Yes/Yes”.

And the “Surface Activity (termites on the surface of the soil)” value (Coptotermes formosanus; [9])?
Its value is “No/No”.

And the “Tunneling Activity” value (Coptotermes formosanus; [9])?
The value was “Yes/Yes”.

What about the “Surface Activity (termites on the surface of the soil)” value (Coptotermes formosanus; [10]) of the same compound?
The value was 1-25 % (of pop.).

What about the “Tunneling Activity” value (Coptotermes formosanus; [10]) of the same compound?
Its value is “Yes/Yes”.

And the “Visible Mortality” value (Coptotermes formosanus; [10])?
Its value is 67-100 % (of pop.).

And the “reduction in termite attack” value (Coptotermes formosanus; concentrated solutions, followed by leaching)?
Its value is “a significant reduction in termite attack”.

And the “repellent effect on termites (surface activity data)” value (Coptotermes formosanus; ethanol carrier)?
Its value is “a degree of termite repellency throughout the incubation period”.

And the “toxic value, lower (concentration at which the wood is no longer sufficiently protected)” value (Coptotermes formosanus; mean loading, solution concentration 5%, ethanol carrier, leached, 4 weeks)?
Its value is 32.52 kg/m^3.

What about the “toxic value, upper (lowest concentration which protects the wood)” value (Coptotermes formosanus; mean loading, solution concentration 7%, ethanol carrier, leached, 4 weeks) of the same compound?
Its value is 44.00 kg/m^3.

And the “Mean Rating (termite attack)” value (Coptotermes formosanus; [11])?
The value was 2.75.

And the “Termite Attack Rating” value (Coptotermes formosanus; [11])?
The value was 3 and 2 and 4.

What about the “Mean Rating (termite attack)” value (Coptotermes formosanus; [12]) of the same compound?
Its value is 2.25.

What about the “Termite Attack Rating” value (Coptotermes formosanus; [12]) of the same compound?
Its value is 2 and 3.

What about the “Mean Rating (termite attack)” value (Coptotermes formosanus; [13]) of the same compound?
Its value is 1.50.

And the “Termite Attack Rating” value (Coptotermes formosanus; [13])?
Its value is 1 and 2.

And the “Mean Rating (termite attack)” value (Coptotermes formosanus; [14])?
Its value is 1.00.

And the “Termite Attack Rating” value (Coptotermes formosanus; [14])?
Its value is 1.

And the “Mean Rating (termite attack)” value (Coptotermes formosanus; [15])?
Its value is 1.00.

And the “Termite Attack Rating” value (Coptotermes formosanus; [15])?
Its value is 1.

What about the “Mean Termite Attack Score (0-4)” value (Macrotermes natalensis; 1% TBBA (w/w)) of the same compound?
Its value is 0.00 (0.00).

What about the “highest termite attack score out of 3 replicates” value (shortened to “highest termite attack score out”) (Macrotermes natalensis; 1% TBBA) of the same compound?
Its value is 0.

And the “Mean Termite Attack Score (0-4)” value (Macrotermes natalensis; 3% TBBA (w/w))?
Its value is 0.00 (0.00).

And the “highest termite attack score out” value (Macrotermes natalensis; 3% TBBA)?
Its value is 0.

What about the “Mean Termite Attack Score (0-4)” value (Macrotermes natalensis; 5% TBBA (w/w)) of the same compound?
Its value is 0.00 (0.00).

What about the “highest termite attack score out” value (Macrotermes natalensis; 5% TBBA) of the same compound?
The value was 0.

And the “Mean Termite Attack Score (0-4)” value (Macrotermes natalensis; 7% TBBA (w/w))?
Its value is 0.33 (0.58).

What about the “highest termite attack score out” value (Macrotermes natalensis; 7% TBBA) of the same compound?
Its value is 1.

What about the “Mean Termite Attack Score (0-4)” value (Macrotermes natalensis; 10% TBBA (w/w)) of the same compound?
Its value is 0.00 (0.00).

What about the “highest termite attack score out” value (Macrotermes natalensis; 10% TBBA) of the same compound?
Its value is 0.
